For test [1], the system named is SDH-KO-HRAS cells (SDHB-deficient). Description: Cellular / differential toxicity assay (CellTiter-Glo, 3 days). Type of test: cell-based, murine. The conditions noted are these: toxicity, SDH-KO cells, 3 days, CellTiter-Glo, read-out: EC50 (uM) SDH-KO-HTAS-C17. Put shortly:
(§1)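 Isogenic SDHB-deficient (HRAS-transformed SDH-KO) and SDH-WT cells grown in DMEM-F12 with 1 mM glutamine and 3% FBS, plated with compound (10-point dilution from 10 uM to 0.0065 uM or lower) for 3 days at 37 °C, 5% CO2. Viability by CellTiter-Glo luminescence; EC50 calculated.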

The subject of a further test is SDH-WT cells. The description is as above. It is filed as cell-based, murine. The conditions noted are these: toxicity, SDH-WT cells, 3 days, CellTiter-Glo, read-out: EC50 (uM) SDH-WT. The method in brief:
as §1

Like-named read-outs stand apart in the source and are kept apart here. Where only a bound is given, the exact number is not on record here.

As to `CC(Cc1ccccc1)Nc1ncnc2c1sc1nc3c(cc12)COC(C)(C)C3` (stereo not drawn) [Compound 276], the EC50 is over 10 µM in test [1] (Mus musculus, 72 h) and 3 to 10 µM in the test with SDH-WT cells (Mus musculus, 72 h).
Turning to `CC1(C)Cc2nc3sc4c(NCc5cccnc5)ncnc4c3cc2CO1` [Compound 277], the EC50 in test [1] (Mus musculus, 72 h) is over 10 µM; in the test on SDH-WT cells (Mus musculus, 72 h), over 10 µM.
On to `CN(CCO)c1ncnc2c1sc1nc3c(cc12)COC(C)(C)C3` [Compound 278], for which the EC50 was over 10 µM in test [1] (Mus musculus, 72 h) and over 10 µM in the test with SDH-WT cells (Mus musculus, 72 h).
Turning to `CC1(C)Cc2nc3sc4c(N5CCC(Cc6ccccc6)CC5)ncnc4c3cc2CO1` [Compound 279], the EC50 in test [1] (Mus musculus, 72 h) is over 10 µM; in the test with SDH-WT cells (Mus musculus, 72 h) it was over 10 µM.
For the molecule `CCN1CCN(c2ncnc3c2sc2nc4c(cc23)COC(C)(C)C4)CC1` [Compound 280], the EC50 in test [1] (Mus musculus, 72 h) is over 10 µM; with SDH-WT cells (Mus musculus, 72 h) it was over 10 µM.
As to `COCCCNc1ncnc2c1sc1nc3c(cc12)COC(C)(C)C3` [Compound 281], the 50% effective concentration (EC50) in test [1] (Mus musculus, 72 h) is 3 to 10 µM; in the test on SDH-WT cells (Mus musculus, 72 h) it was over 10 µM.
For `CC1CCCCN1c1ncnc2c1sc1nc3c(cc12)COC(C)(C)C3` (stereo not drawn) [Compound 282] the same measures were over 10 µM and over 10 µM.
With `COCCNc1ncnc2c1sc1nc3c(cc12)COC(C)(C)C3` [Compound 283], the EC50 in test [1] (Mus musculus, 72 h) is over 10 µM; with SDH-WT cells (Mus musculus, 72 h), over 10 µM.
As for `CC1(C)Cc2nc3sc4c(NCCOCCO)ncnc4c3cc2CO1` [Compound 284], the EC50 in test [1] (Mus musculus, 72 h) is over 10 µM; in the test on SDH-WT cells (Mus musculus, 72 h) it was over 10 µM.
For `CC(O)CN(CC(C)O)c1ncnc2c1sc1nc3c(cc12)COC(C)(C)C3` (stereo not drawn) [Compound 285], the concentration giving a half-maximal response (EC50) in test [1] (Mus musculus, 72 h) was over 10 µM; in the test on SDH-WT cells (Mus musculus, 72 h), over 10 µM.
Consider `CC1(C)Cc2nc3sc4c(N5CCN(C(c6ccccc6)c6ccccc6)CC5)ncnc4c3cc2CO1` [Compound 286], for which the half-maximal effective concentration (EC50) in test [1] (Mus musculus, 72 h) was over 10 µM; in the test with SDH-WT cells (Mus musculus, 72 h) it was over 10 µM.
On to `CCN(CC)CCCNc1ncnc2c1sc1nc3c(cc12)COC(C)(C)C3` [Compound 287], for which the concentration giving a half-maximal response (EC50) was over 10 µM in test [1] (Mus musculus, 72 h) and over 10 µM in the test on SDH-WT cells (Mus musculus, 72 h).
With `CC1(C)Cc2nc3sc4c(N5CCN(CCO)CC5)ncnc4c3cc2CO1` [Compound 288], the EC50 in test [1] (Mus musculus, 72 h) was over 10 µM; in the test on SDH-WT cells (Mus musculus, 72 h) it was over 10 µM.
For the molecule `CCN(CCO)c1ncnc2c1sc1nc3c(cc12)COC(C)(C)C3` [Compound 289], the EC50 in test [1] (Mus musculus, 72 h) is 3 to 10 µM; in the test with SDH-WT cells (Mus musculus, 72 h), over 10 µM.
For `CC1(C)Cc2nc3sc4c(NCCCN5CCOCC5)ncnc4c3cc2CO1` [Compound 290] the same measures were over 10 µM and over 10 µM.
On to `CCC(CO)Nc1ncnc2c1sc1nc3c(cc12)COC(C)(C)C3` (stereo not drawn) [Compound 291], for which the EC50 in test [1] (Mus musculus, 72 h) was over 10 µM; with SDH-WT cells (Mus musculus, 72 h) it was over 10 µM.
Regarding `CN(Cc1ccccc1)c1ncnc2c1sc1nc3c(cc12)COC(C)(C)C3` [Compound 292], the half-maximal effective concentration (EC50) was over 10 µM in test [1] (Mus musculus, 72 h) and over 10 µM in the test with SDH-WT cells (Mus musculus, 72 h).
On to `CC1(C)CCc2cc3c(nc2C1)sc1c(CCC2(c4ccccc4)CCCC2)cccc13` [Compound 293], for which the concentration for a half-maximal effect (EC50) in test [1] (Mus musculus, 72 h) was over 10 µM; with SDH-WT cells (Mus musculus, 72 h), over 10 µM.
Turning to `CCCCNc1ncnc2c1sc1nc3c(cc12)COC(C)(C)C3` [Compound 294], the EC50 (in test [1]; with SDH-WT cells) was over 10 µM each time.
As for `CC1(C)Cc2nc3sc4c(NN)ncnc4c3cc2CO1` [Compound 295], the EC50 in test [1] (Mus musculus, 72 h) is over 10 µM; in the test on SDH-WT cells (Mus musculus, 72 h), over 10 µM.
On to `C=CCNc1ncnc2c1sc1nc3c(cc12)COC(C)(C)C3` [Compound 296], for which the EC50 is 3 to 10 µM in test [1] and over 10 µM in the test with SDH-WT cells.
For `CCN(CC)c1ncnc2c1sc1nc3c(cc12)COC(C)(C)C3` [Compound 297], the half-maximal effective concentration (EC50) in test [1] (Mus musculus, 72 h) is 3 to 10 µM; with SDH-WT cells (Mus musculus, 72 h), over 10 µM.
Taken in the same sequence, the figures for `CC1(C)Cc2nc3sc4c(N5CCCC5)ncnc4c3cc2CO1` [Compound 298] were over 10 µM and over 10 µM.
Taken in the same sequence, the figures for `CCC(C)Nc1ncnc2c1sc1nc3c(cc12)COC(C)(C)C3` (stereo not drawn) [Compound 299] were over 10 µM and over 10 µM.
Taken in the same sequence, the figures for `CCCN(CCC)c1ncnc2c1sc1nc3c(cc12)COC(C)(C)C3` [Compound 300] were 3 to 10 µM and 3 to 10 µM.
On to `COc1ccc(CCn2cnc3c(sc4nc5c(cc43)COC(C)(C)C5)c2=O)cc1F` [Compound 301], for which the concentration for a half-maximal effect (EC50) was over 10 µM in test [1] (Mus musculus, 72 h) and over 10 µM in the test on SDH-WT cells (Mus musculus, 72 h).
For `CCOC(=O)C1CCc2nc3sc4c(NCCc5ccc(OC)c(F)c5)ncnc4c3cc2C1` (stereo not drawn) [Compound 302], the concentration giving a half-maximal response (EC50) in test [1] (Mus musculus, 72 h) is over 10 µM; in the test with SDH-WT cells (Mus musculus, 72 h), over 10 µM.
As for `COc1ccc(CCNc2ncnc3c2sc2nc4c(cc23)COCC4)cc1F` [Compound 303], the concentration giving a half-maximal response (EC50) was under 1 µM in test [1] (Mus musculus, 72 h) and over 10 µM in the test on SDH-WT cells (Mus musculus, 72 h).
Taken in the same sequence, the figures for `CN1C(=O)CCC1n1cnc2ccc(CCNc3ncnc4c3sc3nc5c(cc34)COC(C)(C)C5)cc21` (stereo not drawn) [Compound 304] were under 1 µM and 3 to 10 µM.
For `COCCOCCOCCOCc1c2c(nc3sc4c(NCCc5ccc6[nH]cnc6c5)ncnc4c13)CC(C)(C)OC2` [Compound 305] the same measures were under 1 µM and over 10 µM.
Taken in the same sequence, the figures for `CC1(C)Cc2nc3sc4c(NCCc5ccc6[nH]cnc6c5)ncnc4c3c(CO)c2CO1` [Compound 306] were over 10 µM and over 10 µM.
For `c1ccc(-c2nc(NCCc3ccc4[nH]cnc4c3)c3sc4ncccc4c3n2)cc1` [Compound 307, N-(2-(1H-Benzo[d]imidazol-5-yl)ethyl)-2-phenylpyrido[3′,2′:4,5]thieno[3,2-d]pyrimidin-4-amine], the EC50 in test [1] (Mus musculus, 72 h) was over 10 µM; in the test with SDH-WT cells (Mus musculus, 72 h) it was 3 to 10 µM.
In the case of `Cc1nc(NCCc2ccc3[nH]cnc3c2)c2sc3ncccc3c2n1` [Compound 309, N-(2-(1H-Benzo[d]imidazol-5-yl)ethyl)-2-methylpyrido[3′,2′:4,5]thieno[3,2-d]pyrimidin-4-amine], the half-maximal effective concentration (EC50) is 3 to 10 µM in test [1] (Mus musculus, 72 h) and over 10 µM in the test on SDH-WT cells (Mus musculus, 72 h).
Taken in the same sequence, the figures for `c1cnc2sc3c(NCCc4ccc5[nH]cnc5c4)nc(C4CCCCC4)nc3c2c1` [Compound 310, N-(2-(1H-Benzo[d]imidazol-5-yl)ethyl)-2-cyclohexylpyrido[3′,2′:4,5]thieno[3,2-d]pyrimidin-4-amine] were over 10 µM and over 10 µM.
Taken in the same sequence, the figures for `CC(C)c1nc(NCCc2ccc3[nH]cnc3c2)c2sc3nc4c(cc3c2n1)COC(C)(C)C4` [Compound 311] were 1 to 3 µM and over 10 µM.
Taken in the same sequence, the figures for `CC(C)c1nc(NCCc2ccc3[nH]cnc3c2)c2sc3ncccc3c2n1` [Compound 312, N-(2-(1H-Benzo[d]imidazol-5-yl)ethyl)-2-isopropylpyrido[3′,2′:4,5]thieno[3,2-d]pyrimidin-4-amine] were 3 to 10 µM and 3 to 10 µM.
As to `Cc1nc(NCCc2ccc3[nH]cnc3c2)c2sc3nc4c(cc3c2n1)COC(C)(C)C4` [Compound 313], the EC50 in test [1] (Mus musculus, 72 h) was in the range of 3 to 10 µM; with SDH-WT cells (Mus musculus, 72 h), 3 to 10 µM.
Take `CCCc1nc(NCCc2ccc3[nH]cnc3c2)c2sc3nc4c(cc3c2n1)COC(C)(C)C4` [Compound 314]: the concentration for a half-maximal effect (EC50) in test [1] (Mus musculus, 72 h) lay within 3 to 10 µM; with SDH-WT cells (Mus musculus, 72 h), 3 to 10 µM.
Regarding `CC1(C)Cc2nc3sc4c(NCCc5ccc6[nH]cnc6c5)nc(-c5ccccc5)nc4c3cc2CO1` [Compound 315], the concentration giving a half-maximal response (EC50) in test [1] (Mus musculus, 72 h) fell in the range of 1 to 3 µM; in the test on SDH-WT cells (Mus musculus, 72 h), 3 to 10 µM.
Taken in the same sequence, the figures for `c1cnc2sc3c(NCCc4ccc5[nH]cnc5c4)nc(C4CCCC4)nc3c2c1` [Compound 316, N-(2-(1H-Benzo[d]imidazol-5-yl)ethyl)-2-cyclopentylpyrido[3′,2′:4,5]thieno[3,2-d]pyrimidin-4-amine] were 3 to 10 µM and 3 to 10 µM.
Take `COCCOCCOCCOCCNC(=O)c1c2c(nc3sc4c(NCCc5ccc6[nH]cnc6c5)ncnc4c13)CC(C)(C)OC2` [Compound 317, 4-((2-(1H-Benzo[d]imidazol-5-yl)ethyl)amino)-8,8-dimethyl-N-(2,5,8,11-tetraoxatridecan-13-yl)-7,10-dihydro-8H-pyrano[3″,4″:5′,6′]pyrido[3′,2′:4,5]thieno[3,2-d]pyrimidine-11-carboxamide]: the EC50 in test [1] (Mus musculus, 72 h) was in the range of 3 to 10 µM; in the test with SDH-WT cells (Mus musculus, 72 h), 3 to 10 µM.
Regarding `CC1(C)Cc2nc3sc4c(NCCc5ccc6[nH]cnc6c5)ncnc4c3c(-c3cncs3)c2CO1` [Compound 318], the EC50 was under 1 µM in test [1] (Mus musculus, 72 h) and under 1 µM in the test on SDH-WT cells (Mus musculus, 72 h).
On to `CSCc1c2c(nc3sc4c(NCCc5ccc6[nH]cnc6c5)ncnc4c13)CC(C)(C)OC2` [Compound 319, N-(2-(1H-Benzo[d]imidazol-5-yl)ethyl)-8,8-dimethyl-11-((methylthio)methyl)-7,10-dihydro-8H-pyrano[3″,4″:5′,6′]pyrido[3′,2′:4,5]thieno[3,2-d]pyrimidin-4-amine], for which the EC50 in test [1] (Mus musculus, 72 h) was under 1 µM; in the test with SDH-WT cells (Mus musculus, 72 h) it was 1 to 3 µM.
Taken in the same sequence, the figures for `COCCOCCOCCNCc1c2c(nc3sc4c(NCCc5ccc6[nH]cnc6c5)ncnc4c13)CC(C)(C)OC2` [Compound 320, N-(2-(1H-Benzo[d]imidazol-5-yl)ethyl)-11-(5,8,11-trioxa-2-azadodecyl)-8,8-dimethyl-7,10-dihydro-8H-pyrano[3″,4″:5′,6′]pyrido[3′,2′:4,5]thieno[3,2-d]pyrimidin-4-amine] were 3 to 10 µM and 3 to 10 µM.
Taken in the same sequence, the figures for `COCCOCCOCCOCCNCc1c2c(nc3sc4c(NCCc5ccc6[nH]cnc6c5)ncnc4c13)CC(C)(C)OC2` [Compound 321, N-(2-(1H-Benzo[d]imidazol-5-yl)ethyl)-8,8-dimethyl-11-(5,8,11,14-tetraoxa-2-azapentadecyl)-7,10-dihydro-8H-pyrano[3″,4″:5′,6′]pyrido[3′,2′:4,5]thieno[3,2-d]pyrimidin-4-amine] were 1 to 3 µM and 3 to 10 µM.
